Test results published in publication PMC8949075, “Evaluation of Two Novel Hydantoin Derivatives Using Reconstructed Human Skin Model Episkin^TM: Perspectives for Application as Potential Sunscreen Agents” (Molecules, 2022).

Key:
[1] = Episkin skin permeation test (finite dose, OECD 428); assay type: in vitro ADME, human; details: human; 24 h exposure, 10 mg/cm^2 finite dose, 2% formulation; read-out: recovery in the epidermis (of the applied dose)
Procedure: (§1) The MM was provided by the manufacturer.
(§2) The receptor fluid composition was based on the pilot experiments.
(§3) The formulations of the test compounds (JH3 and JH10) and commercial UV filters were applied onto the skin surface in the donor compartment in a net dose of 10 mg/cm^2 (finite dose application) using disposable flexible loops. To quantify the dose of the formulation applied on the top of the Episkin^TM model, the loops were weighed, filled with approximately 11 mg of formulation, and then reweighed. The difference in weight was used as the amount of formulation applied. Commercial UV filters such as BP3, 4MBC, and AVO were used as reference standards. The filters were obtained from Sigma-Aldrich, Darmstadt, Germany.
(§4) The plate with tissues was embedded with parafilm and incubated at specific time points at 32 °C. As the passive diffusion of chemicals (and therefore their skin absorption) is affected by temperature, the diffusion chamber and skin were maintained at a constant temperature close to normal skin temperature of 32 ± 1 °C [19, 23, 30, 32]. At fixed time points (0, 1, 2, 3, 4, 5, 6, and 24 h), aliquots of the receptor fluid (0.5 mL) were collected from the receptor compartment and immediately replaced with fresh fluid. After 24 h the entire receptor fluid was collected, and the skin surface was washed thoroughly with cotton buds impregnated in methanol (5 times). The tissues were removed from the inserts and both the donor and receptor compartments were washed separately with methanol. The samples were stored at −20 °C until chemical analysis.
(§5) All samples were spiked with 25 µL of pentoxifylline (PTX, Sigma-Aldrich, Darmstadt, Germany) (final concentration of 20 µM) used as an internal standard prior to extraction. The samples were analyzed using ultra high-pressure liquid chromatography coupled with mass spectrometry (UHPLC/MS; Waters Corporation, Milford, MA, USA). Quantification was based on peak area and calculated from standard calibration curves of the compound adjusted by the internal standard area. The assay was in agreement with the Organization for Economic Co-operation and Development (OECD) guideline 428 [19].

[2] = test system: Episkin^TM reconstructed human epidermis; assay: as above; assay type: in vitro ADME; details: for absorbed amount detected in the RF (of the applied dose) / amount remaining on the surface of the Episkin: 24 h exposure, 10 mg/cm^2 finite dose
Procedure: as §1, §2, §3, §4, §5

[3] = test system: Episkin^TM reconstructed human epidermis; assay: Episkin phototoxicity test (UVA 50 J/cm^2; MTT viability, Il-1α release); assay type: cell-based; details: 0.5 and 1 mM; for phototoxic potential / viability of irradiated epidermis: UVA 50 J/cm^2; for tissue viability without UVA exposure: non-irradiated
Procedure: as §1
Compounds JH3 and JH10 (final concentrations of 0.5 and 1 mM) solubilized in ethanol (final concentration of 1% in water) were applied topically on the tissue surface. Chlorpromazine (CPZ, chlorpromazine hydrochloride, C17H19ClN2S·HCl, CAS number: 69-09-0, molecular weight: […], purity: meets USP testing specifications, Sigma-Aldrich, Darmstadt, Germany) (final concentration of 0.5 mM, based on literature data) was used as a positive control, whereas solvent alone served as a negative control.
Duplicate plates were prepared for UVA and dark (controls) exposure purposes. After the treatment period of 2 h, the excess test compound was removed from each well, and the tissues were exposed to UVA at a non-cytotoxic dose of 50 J/cm^2 ([…] at 250 W/m^2) with a solar light simulator equipped with a window glass filter and ID65 filter (Suntest CPS+, Atlas, Linsengericht, Germany). The emitted spectrum contained both UV and visible outputs with a UV cut-on of approx. 320 nm and corresponded to ID65 per ISO 10,977 [74]. The irradiance level between 320 and 400 nm was approximated by the following equation: W/m^2 (320–400 nm) = W/m^2 (300–800 nm) ÷ 11.5. In parallel, the non-irradiated treated tissues were placed in the dark under the same conditions. […] Next, cell viability was assessed using an MTT conversion test and the culture media aliquots were kept frozen (−20 °C) for Il-1α measurement (see 2.3.2. The Episkin^TM skin irritation test method section).

[4] = CHO-K1 cytotoxicity assay (MTT); assay type: cell-based; details: Chinese hamster, concentrations ranging from 1 to 10 µM, read-out: viability of cells
Procedure: The Chinese hamster ovary CHO-K1 cell line was obtained from the American Type Culture Collection (ATCC CCL-61). The CHO-K1 cell line was cultured in a humidified incubator at 37 °C with 5% CO2, in F-12K Medium (Kaighn’s Modification of Ham’s F-12 Medium) (ATCC) supplemented with 10% fetal bovine serum (FBS; Gibco, Waltham, MA, USA) and antibiotics (1% streptomycin/penicillin salts mixture, Sigma–Aldrich, Darmstadt, Germany).
The cells were seeded at a density of 6 × 10^3 on 96-well plates. […] Test compounds and 4MBC were dissolved in DMSO (solvent, final concentration 0.1%) and ethanol (co-solvent, final concentration 1%). At the end of the incubation period, 10 µL of MTT reagent was added to each well. After 4 h incubation (37 °C, 5% CO2), the medium was discarded, and the formazan produced in the cells appeared as dark crystals in the bottom of the wells. Next, pure DMSO was added to each well. The optical density data of converted dye was measured at 570 nm (A570) on microplate reader. […] The experiment was conducted two times with three repetitions for each condition.

[5] = test system: MCF-7 breast cancer model; design: method as in PMID 31238526; details: cited from earlier work
[6] = test system: selected human skin cells; design: method as in PMID 31238526; details: cited from earlier work
[7] = test system: Episkin^TM reconstructed human epidermis; assay: Episkin skin irritation test (MTT viability, Il-1α release; OECD 439); details: for Il-1α release: 26 mg/cm^2 topical, 15 min exposure, 42 h post-incubation; for skin irritation classification: 50% viability cut-off (OECD prediction model)
Excerpt: The Episkin^TM model (aged 13 days, large/1.07 cm^2 surface area) was provided by Episkin (Lyon, France). The Episkin^TM kit consists of 12 reconstructed epidermis units made of type I collagen matrix, representing the dermis, surfaced with a film of type IV collagen, upon which is laid a stratified and differentiated epidermis derived from human keratinocytes [17]. Upon receipt of the tissues, the culture inserts were removed from the agarose-nutrient solution and transferred into 12-well plates containing 2 mL of the maintenance medium (MM) per well. The MM was provided by the manufacturer. Tissues were then incubated for 24 h at 37 °C in a humidified atmosphere of 5% CO2 before use in the permeation, irritation, or phototoxicity experiments.
Prior to the irritation experiments, the Episkin^TM inserts were washed with sterile PBS to remove traces of the MM and transferred into new 12-well plates containing 2 mL of fresh MM. […] Sodium dodecyl sulphate (SDS; Sigma-Aldrich, Darmstadt, Germany) (5% in water) and PBS were used as positive and negative controls, respectively. Both controls were applied topically (26 mg/cm^2). Samples were tested in two independent experiments using three tissues for each chemical, positive, or negative control.
Then, the tissues were placed in new 12-well plates containing 2 mL of the MM per well and incubated for an additional 42 h at 37 °C in a humidified atmosphere of 5% CO2 as post-treatment incubation time. At the end of this period, the culture media of each tissue were collected and stored at −20 °C for Il-1α measurement.
The cell viability was assessed by a subsequent incubation of the tissues for 3 h with freshly prepared 3-(4,5-dimethylthiazol-2-yl)-2,5-diphenyltetrazolium bromide (MTT; Sigma-Aldrich, Darmstadt, Germany) solution (0.3 mg/mL in assay medium (AM)) in a 12-well plate. Then, a biopsy of the epidermis was done using a puncher (Episkin, Lyon, France), and the precipitated formazan was extracted using 500 µL of acidified isopropanol (Chempur, Piekary Śląskie, Poland) (0.04 N HCl in isopropanol) for 48 h (4 °C). At the end of the extraction period, 200 µL of each sample were transferred to 96-well plates for absorbance measurements at 570 nm (A570) [70, 71, 72, 73]. […] Viability (percent of control) was determined by dividing A570 of experimental wells by A570 of control wells × 100%. The test substance was considered as an irritant when mean tissue viability was equal or less than 50% [16, 17].
Il-1α measurement was conducted by a classic enzyme-linked immunosorbent assay (ELISA) technique (Cayman Chemical, Ann Arbor, MI, USA). Firstly, 100 µL of the samples were added into a 96-well ready to use microtiter plate (precoated with a monoclonal antibody specific for Il-1α (Il-1α capture antibody). Secondly, 100 µL of an acetylcholinesterase:Fab’ Conjugate (AChE:Fab’) was added to each well. The plate was covered with plastic film and incubated overnight at 4 °C. At the end of the incubation period the contents of each well were removed and rinsed five times with wash buffer. Next, 200 µL of Ellman’s reagent (containing the substrate for AChE) was added to each well, the plate was covered with plastic film and developed in the dark using an orbital shaker. The absorbance of the wells was measured at 410 nm. Il-1α concentrations were then calculated using the standard curve.

| SMILES | recovery at 24 h, 2 % in formulation [1] | absorbed amount detected in the RF (of the applied dose) ([2]; 2% formulation) | amount remaining on the surface of the Episkin ([2]; 2% formulation) | detectable amount in RF, fold lower than that of JH10 ([2]; after 24 h exposure) | detection in the receptor fluid over time ([2]; sampling 0-6 and 24 h, 2% formulation, 10 mg/cm^2) | phototoxic potential [3] | viability of irradiated epidermis [3] | tissue viability without UVA exposure [3] | viability at 24 h [4] | estrogenic activity [5] | cytotoxicity [6] | Il-1α release [7] | skin irritation classification [7] | amount in the receptor fluid (RF) ([2]; after the first hour of exposure, 2% formulation, 10 mg/cm^2) |
| --- | --- | --- | --- | --- | --- | --- | --- | --- | --- | --- | --- | --- | --- | --- |
| CCOC(=O)CN1C(=O)/C(=C/C=C/c2ccc(OC)cc2)N(CC(=O)OCC)C1=O [JH3, diethyl 2,2′-((Z)-4-((E)-3-(4-methoxyphenyl)allylidene)-2,5-dioxoimidazolidine-1,3-diyl)diacetate] | 3% | 1% | 95% | about 28 fold | undetectable in the RF in the first six hours | absence of phototoxic potential | no significant difference | no changes in tissue viability | > 75% | no estrogenic activity | no cytotoxicity | no significant increase | non-irritants | – |
| CCOC(=O)CN1C(=O)/C(=C/c2ccc(OC)cc2)N(CC(=O)OCC)C1=O [JH10, diethyl 2,2′-((Z)-4-(4-methoxybenzylidene)-2,5-dioxoimidazolidine-1,3-diyl)diacetate] | 7% | 48% | 45% | – | – | absence of phototoxic potential | no significant difference | no changes in tissue viability | > 75% | no estrogenic activity | no cytotoxicity | no significant increase | non-irritants | 1 µg/cm^2 |
